Experimental data taken from US20070259837A1, “Use of Non-Glucocorticoid Steroids for the Treatment of Muscular Dystrophy” (SANTHERA PHARMACEUTICALS (SCHWEIZ) AG, priority 2004, published 2007).
Where two headings read alike, the source gives them in different places.

Test system: utrophin protein in human muscle cells derived from DMD patients
Assay: Cell-based ELISA for normalized utrophin protein level in primary human myotube cultures
Details: for % UTR vs. PDN (normalized utrophin protein as % of PDN-treated sister cultures): same experiment; for activity at 0.5 µM: Myotube, read-out: % UTR vs. DMSO (normalized utrophin protein over DMSO-solvent treated control)
Procedure: The method used to detect and determine utrophin-inducing activity of non-glucocorticoid steroids has been described previously (Courdier-Fruh, I., Barman, L., Briguet, A. & Meier, T.; 2002, Neuromuscul. Disord.; 12 Suppl:S95). Briefly, primary human muscle cell cultures were prepared according to standard protocols (Askanas V, Kwan H, Alvarez R B, Engel W K, Kobayashi T, Martinuzzi A, Hawkins E F., 1987, J Neurocytol., 16:523-537). Test compounds and the glucocorticoid 6α-methylprednisolone-21 sodium succinate (Pharmacia & Upjohn; Solu-Medrol®, PDN) as reference compound were applied at 500 nM final concentration as soon as myoblasts started to differentiate into myotubes. Incubation with the test compound was ended as soon as well differentiated myotubes have formed, typically resulting in an incubation time with a test compound for 3-7 days.
Normalized concentrations of utrophin protein in human muscle cells cultured in microtiter plates were determined by a cell-based enzyme-linked immunosorbent assay (ELISA) procedure that allows a successive readout for the cell density and utrophin protein level. For calibration, the cell density and differentiation was determined by absorbance measurements of the total dehydrogenase enzyme activity in each well using the colorimetric CellTiter 96®AQ One Solution Reagent Proliferation Assay (Promega) according to the manufacturer's recommendation. Subsequently, cells were fixed, washed, permeabilized with 0.5% (v/v) Triton X-100 and unspecific antibody binding-sites were blocked by standard procedures. Utrophin protein levels were determined immunologically with utrophin-specific primary antibodies (mouse monoclonal antibody to the amino terminal portion of utrophin, NCL-DRP2, Novocastra Laboratories) and with appropriate peroxidase-coupled secondary antibodies using QuantaBlu™ Fluorogenic Peroxidase Substrate Kit (Pierce) for detection. Fluorescence measurements were carried out with a multilabel counter (Wallac) at λex=325 nm and at λem=420 nm. The primary readout of this signal is presented in arbitrary units. For calibration, the arbitrary units representing the relative utrophin protein content of each well were divided by the corresponding cell-titer absorbance value to correct for cell density. For comparison between experiments, the cell-titer corrected readout for utrophin protein content in each well was expressed in percent of solvent treated control cultures (set to 100%). PDN was included in all experiments as reference glucocorticoid, N=3-5 for each compound tested.
Non-glucocorticoid test compounds, applied in a concentration of 500 nM, were regarded as “positive” in case the increase in the level of utrophin protein was at least 20% (mean value) over control cultures treated with the appropriate dilution of DMSO solvent as control and containing no test compound.
A range of different pharmaceutical compounds were tested for their ability to increase levels of utrophin protein in primary human myotube cultures. The cell-based ELISA protocol used to detect the level of utrophin protein is provided above and described in Courdier-Fruh, I., Barman, L., Briguet, A. & Meier, T, 2002, Neuromuscul. Disord.: 12, Suppl:S95. Briefly, fixed and permeabilized human muscle cells derived from DMD patients and cultured in 96-well cell culture plates were incubated with antibodies specific for utrophin at a dilution of 1:1'000 in blocking solution (phosphate buffered saline (PBS) supplemented with 2% fetal calf serum and 1% bovine serum albumin) for 10-15 hours at 4° C. Following several washing steps with 0.1% Triton X-100 in PBS, peroxidase-coupled secondary antibodies diluted 1:3'000 in blocking solution were applied in each well for 1-2 hours at room temperature. Signal detection, data acquisition and normalization was performed as described above and in Courdier-Fruh, I., Barman, L., Briguet, A. & Meier, T, 2002, Neuromuscul. Disord.: 12, Suppl:S95. […]

[1] = 500 nM compound, human muscle cultures, mean value, N=3-6

| Compound | % UTR vs. PDN (normalized utrophin protein as % of PDN-treated sister cultures) [1] [%] | activity at 0.5 µM (Homo sapiens) [%] | activity at 0.5 µM [1] [%] | inhibition of CDCA-mediated utrophin increase by glucocorticoid receptor antagonist RU38486 (500 nM CDCA + 500 nM RU38486 simultaneously, human DMD-patient derived muscle cells, FIG. 2) | utrophin protein levels normalized to cell density (UTR, relative units) compared to solvent-treated control (DMSO) (human DMD-patient derived muscle cells, 500 nM, FIG. 1 / FIG. 2, N=5-6, listed as CDCA) |
| --- | --- | --- | --- | --- | --- |
| CC(=O)OCC(=O)[C@@]12O[C@@H]1CC1C3CC[C@@H]4C[C@H](O)CC[C@]4(C)C3CC[C@@]12C (stereo partly drawn) [Example 68] | 95 | 125 |  |  |  |
| CC1CC[C@@]2(OC1)O[C@H]1C[C@H]3[C@@H]4CC[C@H]5C[C@@H](OC(=O)c6ccccc6)CC[C@]5(C)C4=CC(=O)[C@]3(C)C1[C@@H]2C (stereo partly drawn) [Example 20] | 113 | 131 |  |  |  |
| C[C@]12CCC(=O)C=C1CCC1C2CC[C@]2(C)[C@@H](C(=O)O)CC[C@]12O (stereo partly drawn) [Example 18] | 101 | 120 |  |  |  |
| CC(CCC(=O)O)C1CCC2C3C(=O)C[C@@H]4CC(=O)CC[C@]4(C)C3CC(=O)[C@]12C (stereo partly drawn) [Example 15] | 92 |  | 117 |  |  |
| C[C@]12C[C@@H](O)C3C(CC[C@@H]4C[C@@H](O)CC[C@]34C)C1=CCC2C1=CC(=O)OC1 (stereo partly drawn) [Example 85] | 99 | 120 |  |  |  |
| C#C[C@]1(O)CCC2C3CCC4=CC(=O)CC[C@@H]4C3CC[C@@]21CC (stereo partly drawn) [Example 41, Norgestrel] | 103 |  | 130 |  |  |
| C[C@]12CCC3c4ccc(OC(=O)c5ccccc5)cc4CCC3C1CC[C@@H]2O (stereo partly drawn) [Example 73] | 105 |  | 132 |  |  |
| CC(=O)OCC(=O)[C@H]1CCC2C3CC[C@@H]4C[C@H](OC(C)=O)CC[C@]4(C)C3[C@@H](O)C[C@@]21C (stereo partly drawn) [Example 52] | 112 | 145 |  |  |  |
| CC(=O)OCC(=O)[C@@]1(O)CCC2C3CCC4=CC(=O)CC[C@]4(C)C3CC[C@@]21C (stereo partly drawn) [Example 63, Cortexolone 21-acetate] | 99 | 129 |  |  |  |
| CC(=O)[C@@]12O[C@@H]1CC1C3CC(C)=C4C[C@@H](O)CC[C@]4(C)C3CC[C@@]12C (stereo partly drawn) [Example 61] | 100 | 130 |  |  |  |
| CC(C)CCCC(C)[C@H]1CCC2C3C(=O)C[C@H]4C[C@@H](OC(=O)c5ccccc5)CC[C@]4(C)C3CC[C@@]21C (stereo partly drawn) [Example 30] | 109 | 127 |  |  |  |
| CC(=O)O[C@H]1CC[C@]2(C)C3=CC[C@]4(C)C(C(C)=O)=CCC4C3CC[C@H]2C1 (stereo partly drawn) [Example 55] | 107 | 125 |  |  |  |
| CC(=O)O[C@H]1CC[C@]2(C)C3=CC(=O)[C@]4(C)C5[C@H](C[C@H]4[C@@H]3CC[C@H]2C1)O[C@]1(CCC(C)CO1)[C@H]5C (stereo partly drawn) [Example 23] | 103 | 129 |  |  |  |
| C[C@]12CC[C@H](Cl)CC1=CCC1C2CC[C@]2(C)C(=O)CCC12 (stereo partly drawn) [Example 50] | 98 | 123 |  |  |  |
| CC(=O)O[C@@H]1CC[C@]2(C)C3CC[C@]4(C)[C@@H](C(=O)O)[C@@H](OC(C)=O)C[C@]4(O)C3CC[C@@H]2C1 (stereo partly drawn) [Example 19] | 98 | 123 |  |  |  |
| COc1ccc2c(c1)CCC1C2CC[C@@]2(C)C1CC[C@]2(C)O (stereo partly drawn) [Example 79] | 98 | 126 |  |  |  |
| CCC(=O)O[C@H]1CC[C@]2(C)C3CC[C@]4(C)C(=O)CCC4C3CC[C@H]2C1 (stereo partly drawn) [Example 43] | 99 | 128 |  |  |  |
| COC(=O)CCC(=O)O[C@H]1CC[C@]2(C)C3C(=O)[C@@H](O)[C@]4(C)C5[C@H](C[C@H]4[C@@H]3CC[C@H]2C1)O[C@]1(CCC(C)CO1)[C@H]5C (stereo partly drawn) [Example 26] | 98 | 123 |  |  |  |
| CC(=O)O[C@@]1(C(C)=O)CCC2C3C[C@H](C)C4=CC(=O)CC[C@]4(C)C3CC[C@@]21C (stereo partly drawn) [Example 54] | 106 |  | 135 |  |  |
| CCC(=O)O[C@H]1CCC2C3CCC4=CC(=O)CC[C@]4(C)C3CC[C@@]21C (stereo partly drawn) [Example 48, Testosterone propionate] | 98 | 122 |  |  |  |
| CC(CCC(=O)O)C1CCC2C3CC(=O)[C@@H]4C[C@H](O)CC[C@]4(C)C3CC[C@]12C (stereo partly drawn) [Example 5] | 108 |  | 136 |  |  |
| CC(C)CCCC(C)[C@H]1CCC2C3CC[C@H]4CC(=O)CC[C@]4(C)C3CC[C@@]21C (stereo partly drawn) [Example 32] | 104 | 132 |  |  |  |
| C[C@]12C=CC(=O)C=C1CCC1C2=CC[C@]2(C)C(C(=O)CN3CCN(c4cc(N5CCCC5)nc(N5CCCC5)n4)CC3)CCC12.O=C(O)/C=C\C(=O)O (stereo partly drawn) [Example 51] | 113 | 143 |  |  |  |
| C[C@]12CC(=O)C3C(CC[C@H]4C[C@@H](O)CC[C@]34C)C1CCC2=O (stereo partly drawn) [Example 49] | 97 | 127 |  |  |  |
| C[C@@]12C=CCC1C1CC[C@H]3C[C@H](O)CC[C@]3(C)C1CC2 (stereo partly drawn) [Example 47] | 98 | 127 |  |  |  |
| CC(=O)C1CCC2C3CC[C@H]4C[C@@H](O)CC[C@]4(C)C3CC[C@]12C (stereo partly drawn) [Example 62] | 99 | 129 |  |  |  |
| CC(CCC(=O)O)C1CCC2C3CC=C4C[C@H](O)CC[C@]4(C)C3CC[C@]12C (stereo partly drawn) [Example 13] | 96 | 126 |  |  |  |
| C[C@H](CCC(=O)O)[C@H]1CC[C@H]2[C@@H]3[C@H](O)C[C@@H]4C[C@H](O)CC[C@]4(C)[C@H]3CC[C@]12C [Example 11, 3α,7α-dihydroxy-5β-cholanic acid] | 81 | 172 |  | not inhibited | significantly increased |
| CC(=O)[C@@]12O[C@@H]1CC1C3CC=C4C[C@@H](O)CC[C@]4(C)C3CC[C@@]12C (stereo partly drawn) [Example 56] | 105 | 137 |  |  |  |
